Literature values in patent US8273880B2, “Pyrazole compounds with inhibitory activity against ROS kinase” (Korea Institute of Science and Technology, priority 2009, dated 2012).

Target: ROS kinase (Homo sapiens, UniProt P08922)
Set-up: literature Reaction Biology Corporation
Details: Data from Reaction Biology corporation (website); read-out: Inhibitory Activity against ROS (IC50); cited from earlier work

Chain of ROS kinase (P08922 28-2347): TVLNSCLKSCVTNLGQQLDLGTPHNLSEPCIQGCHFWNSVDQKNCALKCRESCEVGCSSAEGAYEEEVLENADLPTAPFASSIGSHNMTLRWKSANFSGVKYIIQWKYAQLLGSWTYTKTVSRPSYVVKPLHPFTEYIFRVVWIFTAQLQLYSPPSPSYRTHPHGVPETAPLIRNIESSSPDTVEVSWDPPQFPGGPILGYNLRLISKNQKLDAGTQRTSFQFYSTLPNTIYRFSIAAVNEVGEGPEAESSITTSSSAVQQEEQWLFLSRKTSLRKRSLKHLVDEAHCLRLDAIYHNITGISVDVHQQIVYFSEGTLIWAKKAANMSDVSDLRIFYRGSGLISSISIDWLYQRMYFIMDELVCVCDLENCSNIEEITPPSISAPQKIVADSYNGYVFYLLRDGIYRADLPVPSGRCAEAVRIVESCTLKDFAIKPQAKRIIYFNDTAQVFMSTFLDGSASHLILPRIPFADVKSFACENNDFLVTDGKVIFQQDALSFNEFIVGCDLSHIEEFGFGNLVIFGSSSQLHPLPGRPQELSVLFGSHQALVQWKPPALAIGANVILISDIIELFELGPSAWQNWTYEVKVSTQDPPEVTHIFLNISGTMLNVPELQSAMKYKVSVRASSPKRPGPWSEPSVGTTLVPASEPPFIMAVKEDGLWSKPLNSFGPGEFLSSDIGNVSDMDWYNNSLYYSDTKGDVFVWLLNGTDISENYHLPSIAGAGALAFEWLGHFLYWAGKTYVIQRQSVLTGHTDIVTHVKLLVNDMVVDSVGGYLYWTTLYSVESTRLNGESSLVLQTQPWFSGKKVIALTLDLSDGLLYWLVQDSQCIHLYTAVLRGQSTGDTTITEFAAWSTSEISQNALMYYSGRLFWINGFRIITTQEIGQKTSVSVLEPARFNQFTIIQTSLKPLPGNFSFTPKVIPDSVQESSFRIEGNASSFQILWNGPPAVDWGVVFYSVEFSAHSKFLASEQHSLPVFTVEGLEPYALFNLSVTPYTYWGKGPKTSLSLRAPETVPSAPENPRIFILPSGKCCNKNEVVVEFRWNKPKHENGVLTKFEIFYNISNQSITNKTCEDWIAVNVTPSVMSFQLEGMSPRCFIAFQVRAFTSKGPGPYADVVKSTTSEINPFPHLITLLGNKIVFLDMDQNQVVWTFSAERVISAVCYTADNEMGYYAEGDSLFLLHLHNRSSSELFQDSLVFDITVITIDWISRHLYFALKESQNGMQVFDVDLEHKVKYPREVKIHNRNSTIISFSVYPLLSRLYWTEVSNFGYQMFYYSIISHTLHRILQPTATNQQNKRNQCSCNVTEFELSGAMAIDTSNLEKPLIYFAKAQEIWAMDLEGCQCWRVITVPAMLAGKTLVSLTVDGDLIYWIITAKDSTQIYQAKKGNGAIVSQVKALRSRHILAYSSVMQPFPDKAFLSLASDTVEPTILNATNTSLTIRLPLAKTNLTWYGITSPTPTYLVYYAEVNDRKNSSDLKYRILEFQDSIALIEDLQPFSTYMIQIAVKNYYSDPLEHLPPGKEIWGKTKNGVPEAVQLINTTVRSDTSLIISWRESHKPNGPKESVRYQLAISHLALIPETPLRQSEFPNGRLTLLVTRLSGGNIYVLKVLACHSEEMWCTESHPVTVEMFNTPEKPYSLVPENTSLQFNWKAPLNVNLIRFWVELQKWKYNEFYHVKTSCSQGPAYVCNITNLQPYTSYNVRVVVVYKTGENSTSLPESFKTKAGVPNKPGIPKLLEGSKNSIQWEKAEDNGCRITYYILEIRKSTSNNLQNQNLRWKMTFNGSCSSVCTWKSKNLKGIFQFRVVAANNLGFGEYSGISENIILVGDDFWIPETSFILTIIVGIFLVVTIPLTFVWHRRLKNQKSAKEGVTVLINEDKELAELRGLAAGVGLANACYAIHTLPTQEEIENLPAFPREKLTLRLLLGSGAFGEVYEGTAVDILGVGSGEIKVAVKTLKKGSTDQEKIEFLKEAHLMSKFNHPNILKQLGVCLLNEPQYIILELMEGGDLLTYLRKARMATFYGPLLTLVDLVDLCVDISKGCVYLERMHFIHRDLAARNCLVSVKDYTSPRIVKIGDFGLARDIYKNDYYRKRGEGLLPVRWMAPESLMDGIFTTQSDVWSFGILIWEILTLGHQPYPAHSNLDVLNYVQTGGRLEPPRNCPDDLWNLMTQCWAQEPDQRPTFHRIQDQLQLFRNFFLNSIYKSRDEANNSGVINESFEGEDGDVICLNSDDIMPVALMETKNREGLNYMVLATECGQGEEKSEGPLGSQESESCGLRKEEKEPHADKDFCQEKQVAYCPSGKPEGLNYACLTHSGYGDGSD

PDGFR I-III
IC50: 48 µM
